The target of data set [1] is T1, first bromodomain (BrD1) of human BRD4 (Homo sapiens, UniProt O60885).
T1 construct: the first bromodomain (BrD1) of human BRD4; poly-His (cleaved yes); made in house
Kind of data set: Fluorescence anisotropy binding assay (competition with FITC-labeled MS417 probe). As to conditions: FITC-MS417 probe 80 nM, PBS pH 7.4, 1 hour, 25° C., read-out: BRD4_1 IC50. The essentials: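 Competitive fluorescence anisotropy in PBS pH 7.4: 80 nM FITC-MS417 probe, 0.25 to 1 μM tag-cleaved BrD1, titrated unlabeled ligand, 1 hour at 25° C. IC50 values were fitted and converted to Ki using a corrected Cheng-Prusoff equation assuming one-site competition.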

Data set [2] has as its system mRNA transcript levels of cytokines IL-6, IL-1β and TNFα in RAW264.7 cells. Kind of data set: LPS-induced transcriptional activation of cytokines in murine macrophage cells (quantitative PCR). In kind it is cell-based. The settings on record: Mus musculus. As to the method: LPS-Induced Transcriptional Activation of Cytokines in Murine Macrophage Cells RAW264.7 cells were cultivated with or without a treatment of the compounds as described above. Total RNA was isolated the cells using TRIzol reagent (Gibco, Grand Island, N.Y.) for homogenization. The concentration and integrity of RNA were determined by measuring absorbance at a 260 nm/280 nm ratio. Quantitative PCR was performed to determine the mRNA transcript levels of cytokines IL-6, IL-1β and TNFα with specific primers for these target genes. Each experiment was performed at least in triplicate, and plotted using Prim, and an IC50 value was calculated.

Data set [3] deals with NO release in RAW264.7 cells. Kind of data set: LPS-stimulated nitric oxide (NO) release in murine macrophage RAW264.7 cells (Griess reaction). In kind it is cell-based. As to conditions: Mus musculus, read-out: IC50 in inhibition of LPS-induced NO release. The protocol: LPS-Stimulated Nitric Oxide (NO) Release in Murine Macrophage RAW264.7 Cells
RAW264.7 cells was cultivated in DMEM supplemented with 10% FBS at 37° C. in a humidified atmosphere of 5% CO2. Cells in 96-well plates (0.1 ml, 3×10^5 cells/ml) were treated with the test compounds. After 30 min, all supernatants were removed and cells were treated with LPS (1 μg/ml) and the test compounds. After 24 hours, the level of nitrite was measured using Griess reaction G2930 (Promega Corp., Madison, Wis.) [see Bredt and Snyder, Ann Rev Biochem 63, 175-195 (1994)]. The test compounds dissolved in DMSO were diluted with culture medium to concentrations from 0.28 to 50,000 nM. The final concentration of DMSO was adjusted to 0.05% (v/v). The nitrite production was measured by spectrophotometry at 520 nm using EnVison 2104 Multilabel Reader (PerkinElmer, Inc., Waltham, Mass.). Each experiment was performed at least in triplicate and plotted using Prism.
In general terms: Nitrite, measured by Griess reagent, commonly stands in for NO production.

Data set [4] has as its target T2, BRD4_2 (Homo sapiens, UniProt O60885).
T2 construct: contains two tandem bromodomains (BrD1 and BrD2)
Kind of data set: Fluorescence anisotropy binding assay (competition with FITC-labeled MS417 probe), BRD4_2. As to conditions: FITC-MS417 probe 80 nM, PBS pH 7.4, 1 hour, 25° C.

A short description of data set [5]: Human, rat, and mouse microsome stability assay. The settings on record: Sprague-Dawley (rat), CD1 (mouse), pH 7.4, rat, and mouse liver microsomes, 0.5 μM compound, 0.25 mg/mL microsomal protein, 37° C., read-out: intrinsic clearance Clint. It is filed as in vitro ADME. As to the method:
Human, Rat, and Mouse Microsome Stability Assay
Human, rat, and mouse liver microsomal incubations were carried out at 37° C. with a final incubation volume of 135 μL. Human liver microsomes (mixed gender, Catalog No. H2610) were obtained from XenoTech. Rat liver microsomes (male Sprague-Dawley, Catalog No. 452501) were obtained from BD Gentest. Mouse liver microsomes (male CD1, Catalog No. 452701) were obtained from BD Gentest. Incubations were conducted using a test compound (initially dissolved in DMSO at […] concentration) concentration of 0.5 μM and 0.25 mg/mL microsomal protein in 50 mM phosphate buffer at pH 7.4. Time zero samples were prepared by transferring 13.5 μL of compound-microsomal mix to the quench plates containing 45 μL of quench solution made of 10 nM Buspirone (Sigma) or 50 nM Carbutamide (Princeton Bio) as internal standard in 1:1 methanol:acetonitrile. An aliquot of 1.5 μL Nicotinamide adenine dinucleotide phosphate reduced tetrasodium salt (NADPH) was also added to the time zero plates. The reaction was then initiated by the addition of 13.5 μL NADPH to the compound-microsomal mix. At each of the remaining time points (5, 10, 15, 20, 30, 45 and 60 min) 15 μL of incubation mixture was added to 45 μL of quench solution. Samples were centrifuged for 15-30 minutes at 3800 rpm. Samples were then pooled for 6 per group. An aliquot of 60 μL of supernatant was transferred to 96-well plate, and a 5 μL aliquot was injected and analyzed by LC-MS (Applied Biosystems API 5500 QTrap).
(Liver microsomes are vesicles of endoplasmic reticulum, rich in cytochrome P450 enzymes.)

The test system of data set [6] is IL-8 expression in human basal-like breast cancer cells (BLBCs). Kind of data set: ELISA assay assessing IL-8 expression in BLBCs. In kind it is cell-based. The settings on record: read-out: IC50, inhibition of IL-8 expression. The protocol: ELISA Assay Assessing IL-8 Expression in BLBCs […] The following day upon cells adhesion to the plate bottom, all supernatants were carefully discarded followed by adding test compounds diluted in culturing medium. The test compounds dissolved in DMSO (Sigma-Aldrich Chemical Co., St. […] The final concentration of DMSO was adjusted to 0.05% (v/v). At the end of 24-hour incubation, all supernatants were carefully removed and stored at −80° C. if the subsequent steps would not be performed immediately. The Human IL-8 ELISA Ready-Set-Go! (2nd generation) is used (Catalog No. 88-8086) against the prepared samples. The samples along with the Standard Human IL-8 Recombinant Protein (prepared in duplicates in a 2-fold serial dilution from 250 pg/ml to 2 pg/ml) were incubated overnight for maximal sensitivity. The assay was measured by an absorption reading at 450 nm using EnVision 2104 Multilabel Reader (PerkinElmer, Inc., Waltham, Mass.). Each experiment was performed at least in duplicate and plotted using Prism. The curve fitting equation used was “log(inhibitor) vs. response variable slope (four parameters)”.
For orientation: An ELISA detects its analyte on a solid surface through an enzyme-linked reagent.

Data set [7] concerns primary human AML stem- and progenitor cells. The settings on record: cited from earlier work.
Where [8] appears, read: RAW264.7 cells, LPS, quantitative PCR of mRNA transcript levels, read-out: IC50 in inhibition of transcriptional activation of the cytokines IL-6, IL-1β and TNFα.
[9] abbreviates: RAW264.7 cells, LPS 1 μg/ml, 24 hours, nitrite by Griess reaction.
The mark [10] stands for this setting: RAW264.7, read-out: IC50 in inhibition of transcriptional activation of the cytokines IL-6, IL-1β and TNFα.
The mark [11] stands for this setting: panel of human BLBC cells MDA-MB-435S, MDA-MB-231, BT-549, MDA-MB-157, HS578T, SUM1315, 24-hour incubation.

Structures are written as SMILES. Where two headings read alike, the source gives them in different places. Where only a bound is given, the exact number is not on record here.

The IC50 is the point on the concentration scale where inhibition reaches its midpoint. In general, melting point refers to the temperature, or range, at which the solid turns liquid.

For the compound `CC1=C(Nc2cc(C(=O)O)ccc2Cl)CCCC1=O` [Example 01-36, 4-chloro-3((2-methyl-3-oxocyclohex-1-en-1-yl)amino)benzoic acid], the melting point is 232 to 235 °C. Besides, in data set [1], the IC50 is more than 10000 nM. For the same compound, the IC50 in data set [2] (setting [8]) was 100 to 5000 nM. Also, the IC50 in data set [3] (setting [9]) lay within 100 to 5000 nM. Moreover, the IC50 in data set [4] was more than 10000 nM.
`CC1=C(Nc2ccc3cc(C(=O)O)ccc3c2)CCCC1=O` [Example 01-41, 6((2-methyl-3-oxocyclohex-1-en-1-yl)amino)-2-naphthoic acid] came in with a melting point of 259 to 263 °C. In data set [1], the IC50 lay in the range of 1000 to 10000 nM. The microsomal CLint at 0.5 μM in data set [5] was 25 to 250 µL/min/mg. This compound also returned an IC50 in data set [4] of 1000 to 10000 nM.
For `CC1=C(Nc2ccc(C(=O)Nc3cccc4ccccc34)cc2Cl)CCC1=O` [Example 04-15, 3-chloro-4-((2-methyl-3-oxocyclopent-1-en-1-yl)amino)-N-(naphthalen-1-yl)-benzamide], the IC50 in data set [1] is less than 1000 nM; in data set [2] (setting [10]), 100 to 5000 nM; in data set [3] (RAW264.7, 24 h), 100 to 5000 nM; in data set [4], 1000 to 10000 nM.
Consider `COc1ccccc1NC(=O)c1ccc(NC2=C(C)C(=O)CC2)c(Cl)c1` [Example 04-17, 3-chloro-N-(2-methoxyphenyl)-4-((2-methyl-3-oxocyclopent-1-en-1-yl)amino)benzamide], for which the IC50 in data set [1] is less than 1000 nM; in data set [2] (setting [8]), 100 to 5000 nM; in data set [3] (setting [9]), 100 to 5000 nM; in data set [4] it was 1000 to 10000 nM.
Consider `CC1=C(Nc2cc(C(=O)Nc3ccccc3C)ccc2Cl)CCC1=O` [Example 04-89, 4-chloro-3-((2-methyl-3-oxocyclopent-1-en-1-yl)amino)-N-(o-tolyl)benzamide], for which the 50% inhibitory concentration (IC50) in data set [1] was less than 1000 nM; in data set [2] (setting [10]), 100 to 5000 nM; in data set [3] (RAW264.7, 24 h), 100 to 5000 nM; in data set [4], 1000 to 10000 nM.
In the case of `CC1=C(Nc2cc(C(=O)Nc3ccccc3C)ccc2Cl)CCCC1=O` [Example 04-91, 4-chloro-3-((2-methyl-3-oxocyclohex-1-en-1-yl)amino)-N-(o-tolyl)benzamide], the IC50 was 1000 to 10000 nM in data set [1], 100 to 5000 nM in data set [2] (setting [8]), 100 to 5000 nM in data set [3] (setting [9]) and 1000 to 10000 nM in data set [4].
For the compound `COc1ccc(NC(=O)Cc2cccc(NC3=C(C)C(=O)CCC3)c2)cc1` [Example 04-98, N-(4-methoxyphenyl)-2-(3-((2-methyl-3-oxocyclohex-1-en-1-yl)amino)phenyl)-acetamide], the concentration for half-maximal inhibition (IC50) in data set [1] was more than 10000 nM; in data set [2] (setting [10]), 100 to 5000 nM; in data set [3] (RAW264.7, 24 h), 100 to 5000 nM; in data set [4], more than 10000 nM.
In the case of `CC1=C(Nc2ccc(C(=O)Nc3ccccc3C)cc2Cl)CCCC1=O` [Example 05-15, 3-chloro-4-((2-methyl-3-oxocyclohex-1-en-1-yl)amino)-N-(o-tolyl)benzamide], the IC50 is less than 1000 nM in data set [1], 100 to 5000 nM in data set [2] (setting [8]), 100 to 5000 nM in data set [3] (setting [9]) and 1000 to 10000 nM in data set [4].
Compound `CC1=C(Nc2cc(NS(=O)(=O)c3ccccc3C)ccc2Cl)CCC1=O` [Example 05-57, N-(4-chloro-3-((2-methyl-3-oxocyclopent-1-en-1-yl)amino)phenyl)-2-methylbenzenesulfonamide] registered a melting point of 236 to 238 °C. Besides, in data set [1], the half-inhibitory concentration (IC50) is less than 1000 nM. The IC50 in data set [6] (Homo sapiens, 24 h) was in the range of 100 to 1000 nM. For the same compound, the microsomal CLint at 0.5 μM in data set [5] is 25 to 250 µL/min/mg. This compound showed an IC50 in data set [4] of less than 1000 nM.
Consider `CC1=C(Nc2cc(NS(=O)(=O)c3ccccc3C)ccc2Cl)CCCC1=O` [Example 05-66, N-(4-chloro-3-((2-methyl-3-oxocyclohex-1-en-1-yl)amino)phenyl)-2-methylbenzenesulfonamide], for which the melting point was in the range of 246 to 248 °C. The IC50 in data set [1] is less than 1000 nM. Also, the microsomal CLint at 0.5 μM in data set [5] was 25 to 250 µL/min/mg. The IC50 in data set [4] is less than 1000 nM.
Consider `CC1=C(Nc2ccc(NS(=O)(=O)c3ccccc3C)cc2Cl)CCCC1=O` [Example 05-68, N-(3-chloro-4-((2-methyl-3-oxocyclohex-1-en-1-yl)amino)phenyl)-2-methylbenzenesulfonamide], for which the melting point lay in the range of 248 to 250 °C. Besides, the IC50 in data set [1] is less than 1000 nM. For the same compound, in data set [6] (setting [11]), the IC50 fell in the range of 100 to 1000 nM. In addition, the microsomal CLint at 0.5 μM in data set [5] lay within 25 to 250 µL/min/mg. In addition, the IC50 in data set [4] fell in the range of 1000 to 10000 nM.
For `CC1=C(Nc2cccc(NS(=O)(=O)c3ccccc3C)c2Cl)CCCC1=O` [Example 05-70, N-(2-chloro-3-((2-methyl-3-oxocyclohex-1-en-1-yl)amino)phenyl)-2-methylbenzenesulfonamide], in that order: 185 to 187 °C, less than 1000 nM, 100 to 1000 nM, 25 to 250 µL/min/mg and more than 10000 nM.
On to `CC1=C(Nc2cccc(-c3cn(Cc4ccccc4)nn3)c2)CCC1=O` [Example 06-04, 3-((3-(1-benzyl-1H-1,2,3-triazol-4-yl)phenyl)amino)-2-methylcyclopent-2-enone], for which the 50% inhibitory concentration (IC50) in data set [1] is less than 1000 nM; in data set [2] (setting [8]), 100 to 5000 nM; in data set [3] (setting [9]), 100 to 5000 nM; in data set [4], 1000 to 10000 nM.
On to `Cc1sc2c(c1C)C(c1ccc(Cl)cc1)=N[C@@H](CC(=O)OC(C)(C)C)c1nnc(C)n1-2` [JQ1], for which the “apoptosis in CD34+/CD38− and CD34+/CD38+ stem- and progenitor cells” value in data set [7] (all donors) is “induce apoptosis”. For the same compound, the growth-inhibition and apoptosis result in data set [7] (primary human AML stem- and progenitor cells, including relapsed or refractory patients) was “leads to growth-inhibition and apoptosis”.

Source of the values: patent US9884806B2, “Cyclic vinylogous amides as bromodomain inhibitors” (ICAHN SCHOOL OF MEDICINE AT MOUNT SINAI, priority 2013, dated 2018).
